Test results reported in patent US6177592A, “Compounds” (priority 1997, dated 2001).
Entries after “also recorded” stand apart in the source; their conditions may differ.

Legend:
[1] = test system: vesicular stomatitis virus protein; details: Rossi et al., J. Biol. Chem. 271, 32192 (1996); cited from earlier work
[2] = test system: HSP70; details: cited from earlier work
[3] = test system: Sarcoma-180; test: Sarcoma-180/ICR mice macrobiotic effect; assay type: in vivo
[4] = test system: HL-60 cells; test: Apoptosis in HL-60 cells (apoptic bodies, DNA fragmentation); assay type: cell-based, human; details: at each of the cell-growth-inhibiting concentrations
Protocol: (1) Each 0.5 ml of 0.2 mM CM, 0.8 mM CM or 1.6 mM CM was added to 4.5 ml of RPMI 1640 medium containing 10% of fetal calf serum and 2.5×10^5HL-60 cells (promyelocytic leukemia cell) (ATCC CCL-240) and incubated at 37° C. for 24 hours or 48 hours in the presence of 5% carbon dioxide gas and the numbers of viable cells were measured.
(§1) (2) To each of the wells of a 96-well microtiter plate was added 8, 40, 200 or 1000 μM aqueous solution of GM or 10 μl of water as a control. HL-60 (ATCC CCL-240) was suspended in an RPMI 1640 medium containing 10% of fetal calf serum to make the concentration 5×10^4 cells/ml and each 90 μl thereof was placed in each well of the above-mentioned microtiter plate and incubated at 37° C. for 48 hours in the presence of 5% carbon dioxide. Incubation was conducted for four hours more after addition of 10 μl of a solution (5 mg/ml) of 3-(4,5-dimethylthiazol-2-yl)-2,5-diphenyltetrzolium bromide (MTT; manufactured by Sigma) in a phosphate-buffered saline solution and the state of growth of the cells was observed under a microscope. Further, 100 μl of 2-propanol containing 0.04N hydrochloric acid was added followed by stirring and an absorbance at 590 nm was measured.
(4) HL-60 cells (ATCC CCL240) which were incubated at 37° C. in an RPMI 1640 medium (manufactured by Nissui) containing 10% of fetal calf serum (manufactured by Gibco) treated at 56° C. for 30 minutes were suspended in the above medium to make the concentration 2.5×10^5cells/4.5 ml. To this suspension was added 0.5 ml of 100 μM aqueous solution of GM (final concentration: 10 μM) followed by incubating at 37° C. in the presence of 5% carbon dioxide gas for 24 hours, 48 hours and 72 hours.
(§2) (5) To each well of the 96-well microtiter plate was added 4.12, 12.3, 37.0, 111, 333 or 1000 μM aqueous solution of GD or 10 μl of water as a control. HL-60 (ATCC CCL-240) was suspended in an RPMI 1640 medium containing 10% of fetal calf serum to make the concentration 5×10^4 cells/ml and each 90 μl thereof was placed in each well of the above-mentioned microtiter plate followed by incubating at 37° C. for 48 hours in the presence of 5% carbon dioxide gas. The incubation was conducted for four hours more after addition of 10 μl of 5 mg/ml solution of 3-(4,5-dimethylthiazol-2-yl)-2,5-diphenyltetrazolium bromide (MTT; manufactured by Sigma) in a phosphate-buffered saline solution and the state of growth of the cells was observed under a microscope. In the meanwhile, 100 μl of 2-propanol containing 0.04N HCl was added followed by well stirring and the absorbance at 590 nm was measured.

[5] = test system: Bacillus subtilis IFO 3021; test: Antibacterial activity, viable cell numbers; assay type: cell-based; details: compared with GM
Protocol: Bacillus subtilis IFO 3021 was incubated (by mans of a seed culture) overnight in a sensitive bouillon medium (manufactured by Nissui). Absorbance at 600 nm was measured and viable cell numbers were calculated from the previously-prepared calibration curve showing the relation between the viable cell numbers and absorbance at 600 nm. The seed-cultured liquid was diluted with a fresh sensitive bouillon medium to make the concentration 1×10^6 cells/ml and each 180 μl thereof was placed in each well of the 96-well microtiter plate. Each 20 μl of aqueous solution of GM (4 mg/ml or 2 mg/ml) or water was added to each well followed by allowing to a stationary culture at 37° C. for one night (main incubation) In the meanwhile, a part of the seed culture liquid was diluted with sterilized water, spread onto a sensitive bouillon agar plate medium and incubated at 37° C. for one night and the colonies were counted to measure the precise viable cell numbers.
The cultured liquid in each of the wells was diluted with sterilized water, spread onto a sensitive bouillon agar plate medium and incubated at 37° C. for one night and the colonies were counter to measure the viable cell numbers.

[6] = test system: EAC; test: EAC/DDY mice macrobiotic effect; assay type: in vivo
[7] = test system: IMC; test: IMC/CDF1 mice macrobiotic effect; assay type: in vivo
[8] = test system: mouse leukemia P-388; test: Mouse leukemia P-388 survival (macrobiotic effect) in DBA/2 mice; assay type: in vivo; details: 10 mg/kg/day i.p., five days
Protocol: GM was diluted with a physiological saline solution to a predetermined concentration and subjected to the following tests.
(2) Mouse leukemia P-388 (1.1×10^6 cells/mouse) was intraperitoneally injected to female DBA/2 mice (body weight: about 20 g) of seven weeks age. After that, GM, CM, GD or CD (10 mg/kg/day) was intraperitoneally injected for consecutive five clays. In the meanwhile, a physiological saline solution was intraperitoneally injected to the control group by the same manner. In the two group each consisting of eight mice, survived numbers, average survived days and macrobiotic rate of the mice were calculated.

[9] = test system: HL-60 cells; test: MTT growth inhibition of HL-60; assay type: cell-based, human; details: for inhibition activity of the growth of cancer cells (in words): Example 5; for activity at 10 µM / activity at 20 µM / activity at 40 µM: read-out: degree of cell growth (ratio of absorbance at 590 nm of sample-added section to control)
Protocol: as §1
(3) To each well of the 96-well microtiter plate was added 100, 200 or 400 μM aqueous solution of GM or CM or 10 μl of water as a control and the inhibition activity of growth of HL-60 was measured by the same method as mentioned in Example 5-(2). The degree of cell growth was, however, expressed in terms of the ratio (%) of the absorbance at 590 nm of the sample-added section to that of the water-added section (the control).
as §2
(6) Cyclopentenone and L-cysteine hydrochloride were dissolved in a phosphate buffered saline solution (pH 7.2) to make their concentrations 55 mM and 80 mM, respectively and made to react at 37° C. for 15 minutes at pH 7.2. Apart of the reaction solution was analyzed by a reversed phase HPLC using a column of TSK gel ODS-80Ts (4.6 mm×250 mm; manufactured by Tosoh)at the flow rate of 1 ml/minute using 0.1% aqueous solution of trifluoroacetic acid as a mobile phase whereupon no cyclopentenone was detected. This reaction solution was a solution containing 55 mM of CD.
Degree of cell growth was, however, expressed in terms of the ratio (%) of the absorbance at 590 nm of the section to which the sample was added to that of the control where water was added.

[10] = test system: HSP70 and HSP90; details: Amici et al., J. Virology 68, 6890 (1994); cited from earlier work
[11] = test system: Sendai virus protein synthesis; details: Amici et al., J. Virology 68, 6890 (1994); cited from earlier work

## O=C1C=CCC1 [2-cyclopenten-1-one]
[1]
  synthesis of vesicular stomatitis virus protein: inhibits the synthesis of vesicular stomatitis virus protein
[2]; Rossi et al., J. Biol. Chem. 271, 32192 (1996)
  synthesis of HSP70: induces the synthesis of HSP70
[2]
  concentration required for inducing the HSP70: several hundred

## N[C@@H](CSC1CC(=O)C(O)C1O)C(=O)O (some centres unmarked) [CD]
[3]
  macrobiotic effect: same macrobiotic effect
[4]
  apoptic bodies in the cells: Apoptic bodies were produced in the cells
[5]
  antibacterial activity (in words): same results
[6]
  macrobiotic effect: same macrobiotic effect
[7]
  macrobiotic effect: same macrobiotic effect
[8]
  macrobiotic effect (average survived days): significant macrobiotic effect
[9]
  inhibition activity of the growth of cancer cells (in words): inhibition activity of the growth of cancer cells
[9]; Homo sapiens, HL-60, 48 hours
  activity at 10 µM: 89%
  activity at 20 µM: 56.2%
  activity at 40 µM: 5.3%

## N[C@@H](CCC(=O)N[C@@H](CSC1CC(=O)C(O)C1O)C(=O)NCC(=O)O)C(=O)O (some centres unmarked) [GD, 2,3-dihydroxy-4-glutathion-S-yl-cyclopentanone]
[3]
  macrobiotic effect: same macrobiotic effect
[4]
  apoptic bodies in the cells: apoptic bodies were detected; also recorded: Apoptic bodies were produced in the cells
[5]
  antibacterial activity (in words): same results
[6]
  macrobiotic effect: same macrobiotic effect
[7]
  macrobiotic effect: same macrobiotic effect
[8]
  macrobiotic effect (average survived days): significant macrobiotic effect
[9]
  inhibition activity of the growth of cancer cells (in words): inhibition activity of the growth of cancer cells
[9]; Homo sapiens, HL-60, 48 hours
  activity at 10 µM: 47.2%
  activity at 20 µM: 5.8%
  activity at 40 µM: 2.1%
[9]; Homo sapiens, HL-60, 48 hours, MTT, final concentration, read-out: concentration at which growth of HL-60 cells was completely inhibited
  IC100: 3.7 µM

## CCCCC[C@H](O)/C=C/[C@H]1C=CC(=O)[C@@H]1CCCCCCC(=O)O [prostaglandin Al]
[10]
  synthesis of HSP70 and HSP90: synthesis of HSP70 and HS?90 is induced
[11]
  synthesis of virus protein: synthesis of virus protein is inhibited
